Laboratory results as given in US11160742B2, “Methods and compositions for improving hair color fastness and rejuvenating hair color” (L'Oreal, priority 2018, dated 2021).

Assay: Partition coefficient (Log Po/w) of direct dyes
Conditions: octanol/water partition coefficient

| Log Po/w value | Compound |
| --- | --- |
| around −1.97 | CN(C)c1ccc(/N=N/c2n(C)cc[n+]2C)cc1 [BASIC RED 51, Basic Red 51] |
| around −1.67 | CN(N=Cc1cc[n+](C)cc1)c1ccccc1 [BASIC YELLOW 87, Basic Yellow 87] |
| around −2.31 | Cn1cc[n+](C)c1N=Nc1ccc(N)cc1.[Cl-] [BASIC ORANGE 31, Basic Orange 31] |

Same assay, conditions: octanol/water partition coefficient, table of dyes

| Log Po/w | Compound |
| --- | --- |
| −0.42 | Nc1ccc(NCCO)c([N+](=O)[O-])c1 [HC RED NO. 3] |
| 0.13 | HC RED NO. 7 |
| 5.71 | Cc1ccc(Nc2ccc(Nc3ccc(C)cc3S(=O)(=O)[O-])c3c2C(=O)c2ccccc2C3=O)c(S(=O)(=O)[O-])c1.[Na+].[Na+] [ACID GREEN 25] |
| 0.89 | COS(=O)(=O)[O-].C[N+]1(CCCNc2ccc(O)c3c2C(=O)c2ccccc2C3=O)CCOCC1 [HYDROXYANTHRAQUINONEAMINO-PROPYL METHYL MORPHOLINIUM METHOSULFATE] |
| −0.32 | CCN(Cc1cccc(S(=O)(=O)[O-])c1)c1ccc(C(=C2C=CC(=[N+](CC)Cc3cccc(S(=O)(=O)[O-])c3)C=C2)c2ccccc2S(=O)(=O)[O-])cc1.[Na+].[Na+] [ACID BLUE 9] |
| 2.59 | Cc1cc(N(CCO)CCO)ccc1N=Nc1ccc(N)cc1 [HC YELLOW NO. 7] |
| 0.67 | Cc1cc(N)c([N+](=O)[O-])cc1NCCO [HC VIOLET NO 1] |
| 0.5 | Nc1cc(S(=O)(=O)[O-])cc2cc(S(=O)(=O)[O-])c(N=Nc3ccccc3)c(O)c12.[Na+].[Na+] [ACID RED 33] |
| −0.32 | O=[N+]([O-])c1cc(N(CCO)CCO)ccc1NCCO [HC BLUE NO. 2] |
| 1.3 | CCN(CC)c1ccc2c(-c3ccc(S(=O)(=O)[O-])cc3S(=O)(=O)[O-])c3ccc(=[N+](CC)CC)cc-3oc2c1.[Na+] [ACID RED 52] |
| 0.21 | O=[N+]([O-])c1cc(O)ccc1NCCO [3-NITRO-P-HYDROXYETHYLAMINOPHENOL] |
| 1.2 | Nc1c(N=Nc2ccc([N+](=O)[O-])cc2)c(S(=O)(=O)[O-])cc2cc(S(=O)(=O)[O-])c(N=Nc3ccccc3)c(O)c12.[Na+].[Na+] [ACID BLACK 1] |
| −1.97 | CN(C)c1ccc(/N=N/c2n(C)cc[n+]2C)cc1 [BASIC RED 51, Basic Red 51] |
| 1.19 | Nc1ccc(O)cc1[N+](=O)[O-] [4-AMINO-3-NITROPHENOL] |
| 3 | Nc1ccc(N)c2c1C(=O)c1ccccc1C2=O [DISPERSE VIOLET 1] |
| −10.17 | O=C([O-])C1=NN(c2ccc(S(=O)(=O)[O-])cc2)C(=O)C1N=Nc1ccc(S(=O)(=O)[O-])cc1.[Na+].[Na+].[Na+] (centres unmarked) [ACID YELLOW 23] |
| 1.88 | C[N+](C)(C)c1cccc(N=C2C=C(N)c3c(O)c(Br)cc(N)c3C2=O)c1.[Cl-] [BASIC BLUE 99] |
| −1.05 | ACID YELLOW 3 |
| 0.608 | O=[N+]([O-])c1cc(N(CCO)CCO)ccc1NCCCO [HC VIOLET NO 2] |
| −1.69 | CN(N=Cc1cc[n+](C)cc1)c1ccccc1 [BASIC YELLOW 87, Basic Yellow 87] |
| 3.47 | CC1=CC(=C(c2cc(C)c(N)c(C)c2)c2c(Cl)cccc2Cl)C=C(C)C1=N.O=P(O)(O)O [HC BLUE NO. 15] |
| 1.3 | COc1ccc([N+](=O)[O-])c(NCCN)c1.Cl [HC YELLOW NO. 9] |
| 0.06 | CC1=NN(c2ccccc2)C(=O)C1N=Nc1cccc([N+](C)(C)C)c1.[Cl-] (centres unmarked) [BASIC YELLOW 57] |
| 0.13 | NCCNc1ccc(OCCO)cc1[N+](=O)[O-] [HC ORANGE NO. 2] |
| 1.63 | O=S(=O)(O)c1cc(S(=O)(=O)O)c2c(/N=N\c3ccc(S(=O)(=O)O)c4ccccc34)c(O)ccc2c1 [ACID RED18] |
| −2.31 | Cn1cc[n+](C)c1N=Nc1ccc(N)cc1.[Cl-] [BASIC ORANGE 31, Basic Orange 31] |
| −0.15 | C[N+](C)(C)c1ccc2ccc(O)c(N=Nc3ccc(N)c([N+](=O)[O-])c3)c2c1.[Cl-] [BASIC BROWN 17] |
| 2.09 | O=C1c2ccccc2C(=O)c2c(NCC(O)CO)ccc(NCC(O)CO)c21 (centres unmarked) [HC BLUE NO. 14] |
| 1.4 | O=S(=O)([O-])c1ccc(N=Nc2c(O)ccc3ccccc23)cc1.[Na+] [ACID ORANGE 7] |
| 3.1 | Cc1ccc(Nc2ccc(O)c3c2C(=O)c2ccccc2C3=O)c(S(=O)(=O)[O-])c1.[Na+] [ACIDE VIOLET 43] |

| Compound | Log Po/w |
| --- | --- |
| O=C([O-])c1c(Cl)c(Cl)c(Cl)c(Cl)c1-c1c2cc(Br)c(=O)c(Br)c-2oc2c(Br)c([O-])c(Br)cc12.[Na+].[Na+] [ACIDE RED 92] | 3 |
| CNc1cc(OCC(O)CO)ccc1[N+](=O)[O-] (centres unmarked) [2-NITRO-5-GLYCERYL METHYLANILINE] | 0.89 |
